Assay results from patent publication US20240196885A1, “INSECT PEST BAIT COMPOSITION WITH ISO[…] METHOD FOR CONTROLLING INSECT PESTS” (SYNGENTA CROP PROTECTION AG, priority 2021, published 2024).

Assays:
Assay type in all cases: in vivo
[1] = tested on: Darkling beetle larvae; experiment: Darkling beetle larval knockdown and mortality after exposure to oat flake bait; details: larval stage, 100 ppm, after seven days
[2] = tested on: Agrotis ypsilon (Greasy cutworm); experiment: Protection of corn seedlings from Agrotis ypsilon larvae in field arenas (bait, foliar spray, seed treatment)
Protocol: Trial layout: Arenas of 4 square metres were created in a field with 20 cm high plastic walls to prevent escape of larvae and influx of predators but left to the open air. 3 replicates per trearment were set up. Corn (variety Hightech 2031, conventional non-Bt) was planted at the rate of 30 seeds per arena.
Application method 1: For seed treatment, the seeds were treated with aqueous 40% isocycloseram formulation, such as […]™ (Syngenta Agro S.A.), one day before planting using a standard seed treatment water slurry volume of 50 ml/kg of seed. Four rates of isocycloseram seed treatment were tested 0.3, 0.6, 1.3 and 2.5 mg/seed.
Application method 2: For bait application, dried cobs of maize corn were ground after removal of the seeds to form a coarse granular “corn grit” bait carrier. The corn grit was spread out on a plastic sheet and sprayed with a 40% SC aqueous formulation of isocycloseram mixed with water at the rates of 15, 30 and 60 grams of isocycloseram per 70 kg of corn grit. The baits were then mixed homogeneously and spread by hand in the evening at a rate of 70 kg/ha (7 gr./sqm, or 28 gr./plot) evenly over the soil surface. This was done 4 days after planting, just before emergence of the corn to attract and kill the cutworms at night.
Application method 3: For foliar sprays, a standard hand-held spray-boom with flat-fan nozzles at 600 I/ha was used. The spray was made 1 day after release of the Greasy cutworm larvae at the 2 leaf stage (BBCH 12) of the corn. Three rates were used 30, 60 and 90 grams isocyclseram per hectare
Two check lots were included—both untreated, one with infestation and one without infestation.
Artificial infestation: Laboratory-reared Agrotis ypsilon (Greasy cutworm) larvae at the L5 stage were released into the arenas at a rate of 30 larvae per arena (1 larva per plant) in the morning. This infestation was made Infest 30 L5 larvae into each arena in the morning (1 larva per plant) approx 3 days after seeding just as corn is germinating. Make the application 8-24 hours later.
Assessment: The number of damaged plants per plot was measured at 21 days after the last application (the foliar spray).

[3] = tested on: Darkling beetle larvae; experiment: Darkling beetle larval knockdown and mortality after exposure to oat flake bait
Protocol: (§1) Bait preparation. isocyloseram was applied dissolved in acetone to the appropriate insect diet such that the desired a.i. loading was delivered in the diet after the acetone had evaporated. • House fly—granulated sugar • Termites—filter paper • Darkling beetle—oat flakes
(§2) In a suitable arena, 10 insects of each species were exposed to 1 g of the solid baits. Baits were presented in such a way as to minimise the contact exposure. Three replicates of each treatment and species were conducted.
(§3) Insect knockdown was assessed one and three hours after exposure, and mortality after 24 and 48 and 168 hours.

[4] = tested on: German cockroaches, Blattella germanica; experiment: Cockroach peanut butter bait: donor mortality and secondary kill of recipients; details: for Recipient % mortality: recipients exposed to donors of 1% bait, not to the bait
Protocol: Isocycloseram was incorporated into the peanut-butter base by mixing 0.5 ml of a 10000 ppm (1%) solution of the compound in acetone into 0.5 g of peanut butter. The mixture was left in a fume cupboard for 24 hours to allow the acetone to evaporate, leaving […] of compound in 0.5 g of peanut butter, equivalent to 10000 ppm.
Five adult male and five non-gravid adult female German cockroaches, Blattella germanica, were marked with a dot of white paint, to identify them, and placed into a plastic arena approximately 20 cm in diameter. Also placed in each arena was a simple harbourage constructed from concertinaed card and a water source. After the cockroaches had acclimatised for 24 hours a 15 ml glass vial containing 0.5 g of the treated peanut butter bait was added.
After 48 hours the glass vial containing the bait was removed, and an assessment of the cockroach mortality was made. Five adult male and five non-gravid adult female German cockroaches, Blattella germanica, were added to the arena, leaving any dead or alive cockroaches with the white paint mark in the arena.
Mortality of both the marked and unmarked cockroaches was made after 24 and 96 hours.

[5] = tested on: Darkling beetle adults; experiment: Darkling beetle adult knockdown and mortality after exposure to oat flake bait; details: for Mean % knockdown or mortality: adults
Protocol: as §1, §2, §3

[6] = tested on: Musca domestica; experiment: Adult house fly knockdown and mortality after exposure to a sugar bait
Protocol: as §1, §2, §3

[7] = tested on: Reticulitermes santonensis; experiment: Termite worker knockdown and mortality after exposure to filter paper bait
Protocol: as §1, §2, §3

[8] = tested on: Atta bisphaerica (leaf cutter ant); experiment: Field test for control of leaf cutter ant with pelleted citrus pulp bait; details: for control efficiency after opening the nests in the excavation of the anthills: excavation at 155 DAA, modified Abbott formula; for ceased activity in leaf cutting by ants: ninety days after application
Protocol: Bait preparation. Blends of citrus pulp and refined soybean oil (95/5 w/w %) were sprayed with an aqueous isocycloseram suspension concentrate (SC) such as […]™ (Syngenta Agro S.A.), further blended and pelletized. Bait pellets or granules having an isocycloseram a.i. loading of 0.05, 0.1, 0.2 and 0.3%, respectively, were prepared.
The field test for the control of Atta bisphaerica (leaf cutter ant) was conducted with the pelleted isocycloseram citrus pulp bait. The experimental design was completely randomized, with fourteen treatments and 10 replications, following the norms, considering an anthill as repetition. The treatments used were: isocyloseram −0.05% at doses of 6, 10 and 12 g/m^2, isocyloseram […] 0.1% at doses of 6, 10 and 12 g/m^2, isocyloseram −0.2% at doses of 6, 10 and 12 g/m^2, isocyloseram −0.3% at doses of 6, 10 and 12 g/m^2, A commercial standard Mirex-S (sulfluramid) at a dose of 10 g/m^2 and a control (Placebo); commercial product dosages per m^2 of loose earth. The evaluations with 1, 2, 3 and 7 DAA (days after application) included the loading rate parameters (%) (i.e. the % bait applied that is carried into the ant nest), return rate (%) (i.e. the % bait rejected by the colony) and intoxicated ants. As 1, 2, 3, 7, 15, 28, 60, 90, 118 and 155 DAA, the ground removal parameters (%) and leaf cutting and anthill excavation at 155 DAA.
The application of the products was carried out manually, with the aid of a dosing cup, near the scouts and trails of the anthills. The results obtained were submitted to variance analysis, compared by the Scott-Knott test (p≤0.05) and corrected by the modified Abbott formula for control calculation.

[9] = tested on: Agrotis ypsilon (Greasy cutworm); experiment: Protection of corn seedlings from Agrotis ypsilon larvae in field arenas (bait, foliar spray, seed treatment); remark: listed apart in the source
[10] = 0.1% in oat flake bait, 3 hours
[11] = 0.1% in oat flake bait, 24 hours
[12] = 0.1% in oat flake bait, 48 hours
[13] = 0.1% in oat flake bait, 168 hours
[14] = 1% in oat flake bait, 168 hours

## CCN1OCC(NC(=O)c2ccc(C3=NOC(c4cc(Cl)c(F)c(Cl)c4)(C(F)(F)F)C3)cc2C)C1=O (centres unmarked) [isocyloseram, Isocycloseram]
[1]
  mortality: 100%
[2]; Corn Grit Bait 0.42 gai/kg bait, equivalent 30 gai/ha
  % reduction of corn damage 22 d after infestation: 94%
[2]; Corn Grit Bait 0.63 gai/kg bait, equivalent 60 gai/ha
  % reduction of corn damage 22 d after infestation: 94%
[2]; Corn grit Bait 0.21 gai/kg bait, equivalent 15 gai/ha
  % reduction of corn damage 22 d after infestation: 87%
[2]; Foliar spray 30 gai/ha
  % reduction of corn damage 22 d after infestation: 37%
[2]; Foliar spray 60 gai/ha
  % reduction of corn damage 22 d after infestation: 46%
[2]; Foliar spray 90 gai/ha
  % reduction of corn damage 22 d after infestation: 74%
[2]; Seed treatment 0.3 mg ai/seed, equivalent 18 gai/ha
  % reduction of corn damage 22 d after infestation: 0%
[2]; Seed treatment 0.6 mg ai/seed, equivalent 36 gai/ha
  % reduction of corn damage 22 d after infestation: 2%
[2]; Seed treatment 1.3 mg ai/seed, equivalent 72 gai/ha
  % reduction of corn damage 22 d after infestation: 6%
[2]; Seed treatment 2.5 mg ai/seed, equivalent 144 gai/ha
  % reduction of corn damage 22 d after infestation: 13%
[3]; 0.1% in oat flake bait, 1 hour
  Mean % knockdown or mortality: 0%
[3]; [10]
  Mean % knockdown or mortality: 0%
[3]; [11]
  Mean % knockdown or mortality: 0%
[3]; [12]
  Mean % knockdown or mortality: 3%
[3]; [13]
  Mean % knockdown or mortality: 23%
[3]; 1% in oat flake bait, 1 hour
  Mean % knockdown or mortality: 0%
[3]; 1% in oat flake bait, 3 hours
  Mean % knockdown or mortality: 23%
[3]; 1% in oat flake bait, 24 hours
  Mean % knockdown or mortality: 80%
[3]; 1% in oat flake bait, 48 hours
  Mean % knockdown or mortality: 83%
[3]; [14]
  Mean % knockdown or mortality: 100%
[4]; 1% in peanut butter bait, 48 hours
  Donor % mortality: 100%
[4]; 24 hours post introduction
  Recipient % mortality: 97%
[4]; 96 hours post introduction
  Recipient % mortality: 100%
[5]; adult stage, 100 ppm, after seven days
  mortality: 100%
[5]; 0.1% in oat flake bait, 1 hour
  Mean % knockdown or mortality: 0%
[5]; [10]
  Mean % knockdown or mortality: 0%
[5]; [11]
  Mean % knockdown or mortality: 0%
[5]; [12]
  Mean % knockdown or mortality: 3%
[5]; [13]
  Mean % knockdown or mortality: 7%
[5]; 1% in oat flake bait, 1 hour
  Mean % knockdown or mortality: 0%
[5]; 1% in oat flake bait, 3 hours
  Mean % knockdown or mortality: 0%
[5]; 1% in oat flake bait, 24 hours
  Mean % knockdown or mortality: 93%
[5]; 1% in oat flake bait, 48 hours
  Mean % knockdown or mortality: 97%
[5]; [14]
  Mean % knockdown or mortality: 100%
[6]; 0.10% in sugar bait, 1 hour
  Mean % knockdown or mortality: 0%
[6]; 0.10% in sugar bait, 3 hours
  Mean % knockdown or mortality: 57%
[6]; 0.10% in sugar bait, 24 hours
  Mean % knockdown or mortality: 100%
[6]; 1% in sugar bait, 1 hour
  Mean % knockdown or mortality: 0%
[6]; 1% in sugar bait, 3 hours
  Mean % knockdown or mortality: 97%
[6]; 1% in sugar bait, 24 hours
  Mean % knockdown or mortality: 100%
[7]; 0.10% in filter paper bait, 1 hour
  Mean % knockdown or mortality: 0%
[7]; 0.10% in filter paper bait, 3 hours
  Mean % knockdown or mortality: 0%
[7]; 0.10% in filter paper bait, 24 hours
  Mean % knockdown or mortality: 100%
[7]; 0.10% in filter paper bait, 48 hours
  Mean % knockdown or mortality: 100%
[7]; 1% in filter paper bait, 1 hour
  Mean % knockdown or mortality: 0%
[7]; 1% in filter paper bait, 3 hours
  Mean % knockdown or mortality: 7%
[7]; 1% in filter paper bait, 24 hours
  Mean % knockdown or mortality: 100%
[7]; 1% in filter paper bait, 48 hours
  Mean % knockdown or mortality: 100%
[8]; 0.2% bait (10 and 12 g)
  control efficiency after opening the nests in the excavation of the anthills: higher than 84%
[8]; 0.3% bait (6, 10 and 12 g)
  control efficiency after opening the nests in the excavation of the anthills: higher than 84%
  ceased activity in leaf cutting by ants: 100%
[8]; first three days after application of bait
  response rate as a function of the time of intoxication: 87.5%
[8]; 0.1% bait (12 g)
  ceased activity in leaf cutting by ants: 100%
[8]; 0.2% bait (6, 10 and 12 g)
  ceased activity in leaf cutting by ants: 100%
[8]; seven days after bait application
  response rate as a function of the time of intoxication: 100%
[8]; twenty-eight days after treatment
  average (ground) removal: less than 5%

## CC1(C)[C@H](C(=O)O[C@H](C#N)c2cccc(Oc3ccccc3)c2)[C@@H]1/C=C(\Cl)C(F)(F)F [lambdacyhalothrin, Lambdacyhalothrin]
[9]; Foliar spray 22.4 gai/ha
  % reduction of corn damage 22 d after infestation: 81%

## Spinetoram
[9]; Foliar spray 18 gai/ha
  % reduction of corn damage 22 d after infestation: 28%
